# Measured values from ChEMBL document CHEMBL3046681, “Synthesis and insecticidal evaluation of propesticides of benzoylphenylureas” (2005).
# Tests used:
# Type in all cases: functional
# Mythimna separata [1] = assay: Insecticidal activity against fourth instar larvae of Mythimna separata (Oriental armyworm) in compound treated corn leaves assessed as mortality at 100 mg/kg by foliar application
# Mythimna separata [2] = assay: Insecticidal activity against fourth instar larvae of Mythimna separata (Oriental armyworm) in compound treated corn leaves assessed as mortality at 1 mg/kg by foliar application
# Mythimna separata [3] = assay: Insecticidal activity against fourth instar larvae of Mythimna separata (Oriental armyworm) in compound treated corn leaves assessed as mortality at 5 mg/kg by foliar application
# Mythimna separata [4] = assay: Insecticidal activity against fourth instar larvae of Mythimna separata (Oriental armyworm) in compound treated corn leaves assessed as mortality at 50 mg/kg by foliar application
# Mythimna separata [5] = assay: Insecticidal activity against fourth instar larvae of Mythimna separata (Oriental armyworm) in compound treated corn leaves assessed as mortality at 500 mg/kg by foliar application
# Mythimna separata [6] = assay: Insecticidal activity against fourth instar larvae of Mythimna separata (Oriental armyworm) in compound treated corn leaves assessed as mortality at 200 mg/kg by foliar application
# Mythimna separata [7] = assay: Insecticidal activity against fourth instar larvae of Mythimna separata (Oriental armyworm) in compound treated corn leaves assessed as mortality at 0.2 mg/kg by foliar application
# Mythimna separata [8] = assay: Insecticidal activity against fourth instar larvae of Mythimna separata (Oriental armyworm) in compound treated corn leaves assessed as mortality at 25 mg/kg by foliar application
# Mythimna separata [9] = assay: Insecticidal activity against fourth instar larvae of Mythimna separata (Oriental armyworm) in compound treated corn leaves assessed as mortality at 10 mg/kg by foliar application
# Mythimna separata [10] = assay: Insecticidal activity against fourth instar larvae of Mythimna separata (Oriental armyworm) in compound treated corn leaves assessed as mortality at 0.5 mg/kg by foliar application
# Mythimna separata [11] = assay: Insecticidal activity against fourth instar larvae of Mythimna separata (Oriental armyworm) in compound treated corn leaves assessed as mortality at 0.1 mg/kg by foliar application
SMILES,mortality at 100 mg/kg (Mythimna separata [1]),mortality at 1 mg/kg (Mythimna separata [2]),mortality at 5 mg/kg (Mythimna separata [3]),mortality at 50 mg/kg (Mythimna separata [4]),mortality at 500 mg/kg (Mythimna separata [5]),mortality at 200 mg/kg (Mythimna separata [6]),mortality at 0.2 mg/kg (Mythimna separata [7]),mortality at 25 mg/kg (Mythimna separata [8]),mortality at 10 mg/kg (Mythimna separata [9]),mortality at 0.5 mg/kg (Mythimna separata [10]),mortality at 0.1 mg/kg (Mythimna separata [11])
CC(C)(C)OC(=O)N(C(=O)NC(=O)c1c(F)cccc1F)c1ccc(Cl)cc1,100%,5%,95%,100%,100%,100%,0%,100%,100%,0%,–
CC(C)(C)OC(=O)N(C(=O)NC(=O)c1c(F)cccc1F)c1ccc(C(F)(F)F)cc1,100%,0%,75%,100%,100%,100%,0%,100%,100%,0%,–
O=C(NC(=O)c1c(F)cccc1F)Nc1ccc(Cl)cc1 [DIFLUBENZURON],100%,100%,100%,100%,100%,100%,45%,100%,100%,100%,0%
CCOC(=O)N(C(=O)NC(=O)c1c(F)cccc1F)c1ccc(C(F)(F)F)cc1,100%,0%,0%,100%,100%,100%,0%,5%,0%,0%,–
CCOC(=O)N(C)SN(C(=O)NC(=O)c1c(F)cccc1F)c1ccc(C(F)(F)F)cc1,100%,100%,100%,100%,100%,100%,85%,100%,100%,95%,0%
O=C(NC(=O)N(C(=O)OCc1ccccc1)c1ccc(Cl)cc1)c1c(F)cccc1F,70%,0%,0%,0%,100%,100%,0%,0%,0%,0%,–
CCOC(=O)N(C)SN(C(=O)NC(=O)c1c(F)cccc1F)c1ccc(Cl)cc1,100%,20%,100%,100%,100%,100%,5%,100%,100%,–,0%
CN(SN(C(=O)NC(=O)c1c(F)cccc1F)c1ccc(C(F)(F)F)cc1)C(=O)OC(C)(C)C,100%,100%,100%,100%,100%,100%,35%,100%,100%,100%,0%
CCOC(=O)N(C(=O)NC(=O)c1c(F)cccc1F)c1ccc(Cl)cc1,100%,0%,0%,100%,100%,100%,0%,100%,0%,0%,–
CN(SN(C(=O)NC(=O)c1c(F)cccc1F)c1ccc(Cl)cc1)C(=O)OCc1ccccc1,100%,85%,100%,100%,100%,100%,0%,100%,100%,55%,0%
O=C(NC(=O)N(C(=O)OCc1ccccc1)c1ccc(C(F)(F)F)cc1)c1c(F)cccc1F,0%,0%,0%,0%,100%,30%,0%,0%,0%,0%,–
